# Measurements as given in US20220323376A1, “METHODS AND COMPOSITIONS FOR SENSITIZING CANCER CELLS TO DRUG-INDUCED APOPTOSIS” (New York University, priority 2019, published 2022).
# Tests used:
# AML cells = experiment: Cell death by Annexin V flow cytometry; format: cell-based, human
# Procedure: Cell Cycle and Apoptosis. To assess cell cycle, we performed the 5-ethynyl-2′-deoxyuridine (EdU) incorporation assay using the Click-iT Plus EdU Alexa Fluor 647 kit as described in manufacturer's protocol (Life Technologies). Apoptosis analysis was determined using APC Annexin V (BD Bioscience) and 4′,6-Diamidino-2-Phenylindole, Dihydrochloride (DAPI) for DNA content. Both EdU and Annexin V stained cells were analyzed by flow cytometry and FlowJo software.
# [1] = system: mouse AML cell line RN2 (MLL-AF9; Kras)
# Procedure: ZIP model was used to calculate the delta-score of synergisms of the combination treatments. […] ZIP model was used to calculate the delta-score of synergisms of the combination treatments. […] ZIP model was used to calculate the delta-score of synergisms of the combination treatments.
# Drug Treatment and IC50 Measurements. Cells were plated in 96-well plates and exposed to Venetoclax at concentrations ranging from 0.4 nM to 300 nM (for MOLM-13 and MV4-11), 150 nM to 10 μM (for Venetoclax-resistant cell lines and THP-1) with a minimum of three technical replicates per concentration per cell line. Cell viability was measured with the CellTiter-Glo reagent (Promega) according to manufacturer's instructions. Absolute viability values were converted to percentage viability versus DMSO control treatment, and then non-linear fit of log(inhibitor) versus response (three parameters) was performed in GraphPad Prism v7.0 to obtain the IC50 values. For Venetoclax and Azacitidine combined treatment, two drugs were mixed at the fixed ratio (Ven:Aza=1:4) before diluting to certain concentrations.
# [2] = system: human AML cell lines (MOLM-13, MV4-11, THP-1, KASUMI-1); experiment: Venetoclax/drug IC50 by CellTiter-Glo in sgRNA-transduced AML cell lines; format: cell-based; settings: for Synergistic effect of CLPB ablation with the drug: MOLM-13 and MV4-11 with sgCLPB or sgRosa, 48 hrs
# Source text: (§1) Drug Treatment and IC50 Measurements.
# [3] = system: AML cells (THP-1, MOLM-13); experiment: Western blotting of AML cell lysates after drug treatment; format: cell-based, human; settings: for CLPB protein levels in cells surviving drug treatment: MOLM-13, Venetoclax (IC50) 10 days, Idarubicin 10 nM 2 days
# Procedure: Biochemistry. Protein lysis was performed with RIPA buffer (Thermo Fisher Scientific) in presence of proteases inhibitor cocktail (PIC, Sigma) for 30 min at 4° C. After centrifugation at maximal speed for 20 min, supernatants were collected and protein concentration was determined using Bradford reagent (Bio-Rad).
# Protein lysates (25-30 μg) were loaded onto 4%-12% Bis-Tris or 3%-8% Tris-acetate polyacrylamide gels (Thermo Fisher Scientific), transferred onto PVDF membranes (Millipore) and probed using the following antibodies: anti-CLPB polyclonal (1:2000, Proteintech, Cat #15743-1-AP), anti-TFAM (1:500, Santa Cruz, Cat #sc-376672), anti-OPA1 monoclonal (1:1000, BD Biosciences, Cat #612606), anti-SDHA monoclonal (1:2500, Abcam, Cat #ab14715), anti-HAX1 polyclonal (1:1000, Proteintech, Cat #11266-1-AP), anti-cytochrome c monoclonal (1:4000, Thermo Fisher Scientific, Cat #BDB556433), anti-caspase-3 monoclonal (1:1000, Proteintech, Cat #66470-2-Ig), anti-cleaved caspase-3 polyclonal (1:1000, Cell Signaling, Cat #9661S), anti-GRP75 monoclonal (1:1000, Santa Cruz, Cat #sc-133137), anti-TOM20 monoclonal (1:500, Santa Cruz, Cat #sc-17764), anti-p53 monoclonal (1:1000, Active Motif North America, Cat #39553), anti-BCL-2 polyclonal (1:200, R&D Systems, Cat #AF810-SP), anti-MCL1 polyclonal (1:1000, Proteintech, Cat #16225-1-AP), anti-BCL-XL monoclonal (1:500, R&D Systems, Cat #MAB894SP), anti-NOXA monoclonal (1:500, Abcam, Cat #ab13654), anti-GAPDH polyclonal (1:10000, Proteintech, Cat #10494-1-AP), anti-LAMIN A polyclonal (1:1000, Santa Cruz, Cat #sc-6214) and anti-ACTIN (1:10000, Millipore, Cat #MAB1501) antibodies. Isotype matched secondary antibodies were conjugated to horseradish peroxidase (GE Healthcare) and chemiluminescence was detected with ECL (Life Technologies) using films. Band densitometric analysis was performed using ImageJ (National Institutes of Health).
# [4] = system: human AML cell lines (MOLM-13, KASUMI-1); experiment: IC50 curves of AMG176 in combination with Mdivi-1; format: cell-based; settings: AML cells
# [5] = system: MOLM-13-Par or MOLM-13-VR xenografts; experiment: MOLM-13 parental and VR xenografts in NSG mice, Venetoclax by oral gavage; format: in vivo, NOD SCID gamma (NSG) mice
# Procedure: Animal experiments. For in vivo experiments, Cas9 and luciferase-expressing parental and Venetoclax-resistant MOLM-13 cells were transduced with sgRosa or sgCLPB #1 constructs. At day 2 post-transduction, sgRNA positive cells (GFP) were sorted by FACS. 0.5 million sgRNA-expressing leukemia cells were intravenously injected into recipient NSG mice. For experiments that required drug administration, recipient mice were treated with vehicle or Venetoclax (100 mg/kg, Selleckchem) daily by oral gavage from day 6 to day 20. Venetoclax was prepared in 10% ethanol, 30% polyethyleneglycol-400 (Sigma), and 60% phosal 50 propylene glycol (Lipoid). Whole-body bioluminescent imaging was performed at indicated time points by intraperitoneally injection of Luciferin (Goldbio) at a 50 mg/kg concentration and imaging was performed after 5 mins using an IVIS imager. Bioluminescent signals (radiance) were quantified using Living Image software with standard regions of interests (ROI) rectangles. Peripheral blood of recipient NSG mice was collected at indicated time points after transplantation, and sgRNA positive cells (GFP+) were analyzed by flow cytometry. All animal experiments were performed in accordance with protocols approved by the New York University Institutional Animal Care and Use Committee (IACUC, ID: IA16-00008_TR1).
# Animals. […]
# [6] = system: AML cells (THP-1 and MOLM-13); experiment: Electron microscopy-based morphometric analysis of mitochondria; format: cell-based, human; settings: THP-1 4 μM, MOLM-13 17 nM, 16 hrs
# Procedure: Transmission Electron Microscopy. Cultured cells were fixed in 0.1M sodium cacodylate buffer (pH 7.4) containing 2.5% glutaraldehyde and 2% paraformaldehyde for 2 hrs and post-fixed with 1% osmium tetroxide and 1% potassium ferrocyanide for one hour at 4° C. Then block was stained in 0.25% aqueous uranyl acetate, processed in a standard manner and embedded in EMbed 812 (Electron Microscopy Sciences, Hatfield, Pa.). Ultrathin sections (60 nm) were cut, mounted on copper grids and stained with uranyl acetate and lead citrate. Stained grids were examined under Philips CM-12 electron microscope and photographed with a Gatan (4k×2.7k) digital camera. For morphometric analysis, maximal cristae width was measured using Image J (NIH) as shown in FIG. 4A in at least 50 randomly selected mitochondria from a minimum of 15 cells/experiment.
# AML patients = settings: cited from earlier work
# [7] = system: Venetoclax-resistant (VR) MOLM-13 and MV4-11 cells; experiment: Venetoclax IC50 in parental versus Venetoclax-resistant (VR) AML cell lines; format: cell-based, human
# Procedure: For the generation of the Venetoclax-resistant cell lines, MOLM-13 and MV4-11 were cultured in media containing increasing doses of Venetoclax (from 5 nM to 1000 nM) for more than 8 weeks to achieve complete resistance to the drug.
# as §1
# [8] = system: AML cells (THP-1, MOLM-13, MV4-11); experiment: Mitochondrial membrane potential by TMRM staining; format: cell-based, human; settings: 16 hrs
# Procedure: Mitochondrial Membrane Potential. Mitochondrial membrane potential was monitored cytofluorimetrically using tetramethylrhodamine methyl ester (TMRM). Cells were loaded with 10 nM TMRM in presence of 2 μM Cyclosporin H in Hank's Balanced Salt Solution (HBSS) supplemented with 10 mM HEPES, 30 min at 37° C. When indicated, the experiments were performed in cells pre-treated with Venetoclax for 16 hours at the indicated concentrations.
structure (smiles),measurement,setting,value
"CO[C@H]1/C=C/C[C@H](C)[C@@H](C)S(=O)(=O)NC(=O)c2ccc3c(c2)N(C[C@@H]2CC[C@H]21)C[C@@]1(CCCc2cc(Cl)ccc21)CO3 [AMG176, (3′R,4S,6′R,7′S,8′E,11′S,12′R)-7-chloro-7′-methoxy-11′,12′-dimethyl-13′,13′-dioxospiro[2,3-dihydro-1H-naphthalene-4,22′-20-oxa-13λ6-thia-1,14-diazatetracyclo[14.7.2.03,6.019,24]pentacosa-8,16(25),17,19(24)-tetraene]-15′-one]",Apoptosis induced by AMG176 upon CLPB depletion,"AML cells; MOLM-13 and KASUMI-1 with sgCLPB, 22 hrs",enhances the apoptosis
"CCN(CC)CCCC(C)Nc1ccnc2cc(Cl)ccc12 (stereo not drawn) [Chloroquine, N′-(7-chloroquinolin-4-yl)-N,N-diethylpentane-1,4-diamine]",IC50 of chloroquine upon addition of Venetoclax plus Azacitidine,[1],vice versa
"Nc1ccn([C@@H]2O[C@H](CO)[C@@H](O)[C@@H]2O)c(=O)n1 [Cytarabine, 4-amino-1-[(2R,3S,4S,5R)-3,4-dihydroxy-5-(hydroxymethyl)oxolan-2-yl]pyrimidin-2-one]",Synergistic effect of CLPB ablation with the drug,[2],no synergistic effect
"CC(=O)[C@]1(O)Cc2c(O)c3c(c(O)c2[C@@H](O[C@H]2C[C@H](N)[C@H](O)[C@H](C)O2)C1)C(=O)c1ccccc1C3=O [Idarubicin, (7S,9S)-9-acetyl-7-{[(2R,4S,5S,6S)-4-amino-5-hydroxy-6-methyloxan-2-yl]oxy}-6,9,11-trihydroxy-5,7,8,9,10,12-hexahydrotetracene-5,12-dione]",Synergistic effect of CLPB ablation with the drug,[2],no synergistic effect
same,CLPB protein levels in cells surviving drug treatment,[3],did not lead to increase of CLPB protein levels
Cc1sc2c(c1C)C(c1ccc(Cl)cc1)=N[C@@H](CC(=O)OC(C)(C)C)c1nnc(C)n1-2 [JQ-1],Synergistic effect of CLPB ablation with the drug,[2],no synergistic effect
"COc1cc(-n2c(=S)[nH]c3ccccc3c2=O)c(Cl)cc1Cl [Mdivi-1, 3-(2,4-dichloro-5-methoxyphenyl)-2-sulfanylidene-1H-quinazolin-4-one]",Combination effect with AMG176,[4],synergistic effects with AMG176
"CC1(C)CCC(CN2CCN(c3ccc(C(=O)NS(=O)(=O)c4ccc(NCC5CCOCC5)c([N+](=O)[O-])c4)c(Oc4cnc5[nH]ccc5c4)c3)CC2)=C(c2ccc(Cl)cc2)C1 [Venetoclax, 4-[4-[[2-(4-chlorophenyl)-4,4-dimethylcyclohexen-1-yl]methyl]piperazin-1-yl]-N-[3-nitro-4-(oxan-4-ylmethylamino)phenyl]sulfonyl-2-(1H-pyrrolo[2,3-b]pyridin-5-yloxy)benzamide]",Venetoclax IC50 upon CLPB depletion,"[2]; CLPB sgRNAs versus sgRosa, all the cell lines tested, 48 hours",significantly reduced the IC50
same,Venetoclax half maximal inhibitory concentration (IC50) upon deletion of BAX and PMAIP1,"[2]; KASUMI-1 and MOLM-13 cells, 48 hours, Cell-TiterGlo",significant increase
same,Sensitivity of p53-deficient MOLM-13 to Venetoclax upon CLPB depletion,"[2]; p53-KO clones B10 and B11, sgCLPB #1, 48 hours",fully re-sensitize p53-deficient MOLM-13 to Venetoclax treatment
same,Venetoclax IC50 with TP53 sgRNAs,"[2]; p53 wild-type MOLM-13 and p53-mutant KASUMI-1, 48 hours",increased the Venetoclax IC50 in p53 wild-type MOLM-13 but not p53-mutant KASUMI-1
same,"Synergy of CLPB deletion with Venetoclax in vivo (bioluminescence, circulating GFP+ leukemic cells)",[5]; 100 mg/kg daily oral gavage day 6 to day 20,synergizes efficiently with Venetoclax in both Venetoclax-sensitive and resistant xenografts
same,CLPB and OPA1 protein levels in wild-type tumors at late stages versus vehicle-treated mice,[5]; sorted GFP+ sgRosa leukemia cells from bone marrow,significantly elevated CLPB and OPA1 protein levels
same,Caspase-3 activation in AML cells lacking CLPB relative to wild-type,"[3]; MOLM-13 35 nM, THP-1 4 μM, 16 hrs",prevalent caspase-3 activation
same,CLPB protein levels in cells surviving drug treatment,[3],significant increase in the CLPB protein
same,Caspase-3 cleavage,"[3]; THP-1, 4 μM, 16 hrs",caspase activation
same,OPA1 long and short forms (western blot),"[3]; THP-1, 4 μM, 16 hrs",decrease in the long (L-OPA1) forms and accumulation of short (S-OPA1) forms of OPA1
same,Cell death by Annexin-V staining,"AML cells; AML cells, 16 hrs",cell death
same,Cell death induced by Venetoclax upon depletion of OPA1,"AML cells; THP-1, 4 μM, 16 hrs",enhances cell death
same,Annexin-V cell death in cells transduced with sgRNAs targeting CLPB versus negative controls,"AML cells; puromycin-selected AML cells, 16 hrs",hypersensitivity of these cells to Venetoclax
same,Mitochondrial ultrastructure after treatment,[6],"abnormal ultrastructure after Venetoclax treatment, characterized by a lower number of cristae and increase of the cristae lumen width"
same,Patients that do not respond upfront,AML patients; Venetoclax with hypomethylating agents or low dose cytarabine,approximately 30%
same,"Response rates, single-agent Venetoclax in AML",AML patients; monotherapy,modest and rather short-lived
same,Increase of Venetoclax concentration required for the 50% cell death in VR cell lines in respect to the original clones (Par.),[7]; MOLM-13 and MV4-11 VR versus parental,more than 100 fold
same,Sensitivity of VR cells to Venetoclax upon ablation of CLPB,[7]; VR MOLM-13 and MV4-11 with CLPB sgRNAs,significantly re-sensitized VR cells
same,Mitochondrial depolarization in CLPB-knockout cells (TMRM),[8]; AML cells lacking CLPB versus control,more prone to Venetoclax-induced mitochondrial depolarization
same,Mitochondrial membrane potential (TMRM),"[8]; THP-1 4 μM, MOLM-13 35 nM",depolarization of mitochondria
